Tested on: panel of cancer cell lines
Assay: Cell viability (CellTiter-Glo) dose-response across cancer cell line panel;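 as to EC50: after 72 h compound incubation with CellTiter-Glo ATP readout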
Type: cell-based, human
Conditions: for EC50: Homo sapiens
Excerpt: Next, we explored the effect of CSN5 inhibition on the viability of cancer cells. To obtain a comprehensive picture, we generated dose–response curves with a CSN5 inhibitor across more than 500 cancer cell lines in a previously described standardized setting[47] (Supplementary Data 1).
A standardized CellTiter-Glo Assay (Promega #G7570) based on the quantification of ATP was applied according to the manufacturer's protocol to measure the amount of viable cells in culture. In brief, cells were seeded into 384-well plates at optimal density for each cell line. After 4 h, compounds were added at different concentrations in growth medium and incubated for another 72 h in a humidifying chamber at 37 °C and 5% CO2. […] EC50 values were calculated from the plot of percentage of inhibition versus inhibitor concentration using the nonlinear regression analysis software Origin 7.5SR6 (OriginLab Corp.).

NS(=O)(=O)OC[C@@H]1C[C@@H](n2ccc3c(N[C@H]4CCc5ccccc54)ncnc32)C[C@@H]1O [MLN4924]
EC50 (SNU-685): 720 nM | EC50 (SNU-738): 410 nM | EC50 (SNU-761): 874 nM | EC50 (SNU-886, SNU-886): 42.5 nM | EC50 (SNU-1040): 159 nM | EC50 (SNU-1079): 386 nM | EC50 (SNU-C1, SNU-C1): 1630 nM | EC50 (SNU-C2A): 6400 nM | EC50 (SNU-C4, SNU-C4): 1110 nM | EC50 (SNU-C5): 589 nM | EC50 (SR-786, SR-786): 861 nM | EC50 (SU-DHL10, SU-DHL-10): 204 nM | EC50 (SU-DHL-4, SU-DHL-4): 76.1 nM | EC50 (SU-DHL-5, SU-DHL-5): 101 nM | EC50 (SU-DHL-6, SU-DHL-6): 248 nM | EC50 (SU-DHL-8, SU-DHL-8): 155 nM | EC50 (SU.86.86, SU.86.86): 777 nM | EC50 (SUIT-2, SUIT-2): 184 nM | EC50 (SUM52PE): 109 nM | EC50 (SUM149PT): 611 nM | EC50 (SUM185PE): 63.7 nM | EC50 (SUM190PT): 98.9 nM | EC50 (SUM-159-PT, SUM159PT): 6930 nM | EC50 (SUP-T1, SUP-T1): 154 nM | EC50 (SW48, SW48): 145 nM | EC50 (SW480, SW480): 399 nM | EC50 (SW900, SW 900): 1520 nM | EC50 (SW982, SW982): 805 nM | EC50 (SW1088, SW 1088): > 30000 nM | EC50 (SW1271, SW 1271): 523 nM | EC50 (SW1353, SW 1353): 2900 nM | EC50 (SW1573, SW 1573): 224 nM | EC50 (SW1783, SW 1783): > 30000 nM | EC50 (SW-403, SW403): 803 nM | EC50 (SW-620, SW620): 1500 nM | EC50 (SYO-1): 281 nM | EC50 (Sq-1): 164 nM | EC50 (T3M4, T3M-4): 459 nM | EC50 (T47D, T-47D): 315 nM | EC50 (TALL-1, TALL-1): 446 nM | EC50 (TANOUE): 57.9 nM | EC50 (TC-71, TC-71): 159 nM | EC50 (TCC-PAN2): 1300 nM | EC50 (TE-1, TE-1): 1700 nM | EC50 (TE-6, TE-6): 422 nM | EC50 (TE-11, TE-11): 247 nM | EC50 (TE-14): 339 nM | EC50 (TF-1, TF-1): 1710 nM | EC50 (THP-1, THP-1): 175 nM | EC50 (TT2609-C02): 334 nM | EC50 (TYK-nu): 156 nM | EC50 (U266B1): 827 nM | EC50 (U-87 MG): 447 nM | EC50 (U-118-MG, U-118 MG): 541 nM | EC50 (U-251, U-251 MG): 1690 nM | EC50 (U-937, U-937): 103 nM | EC50 (UACC-62, UACC-62): 192 nM | EC50 (UACC-257, UACC-257): 650 nM | EC50 (UCH1, UCH-1): 5210 nM | EC50 (UKE1, UKE1): 383 nM | EC50 (VM-CUB-1, VM-CUB1): 829 nM | EC50 (VMRC-LCD): 288 nM | EC50 (VMRC-RCW): 1230 nM | EC50 (WM 266-4, WM-266-4): 465 nM | EC50 (WM983B, WM-983B): 201 nM | EC50 (WM-88): 510 nM | EC50 (WM-115, WM-115): 1410 nM | EC50 (WM-1799, WM1799): 154 nM | EC50 (WSU-WM): 185 nM | EC50 (YAPC): 205 nM | EC50 (ZR-75-1, ZR-75-1): 353 nM | AMAX (Hs 695T): -54.4409 | AMAX (Hs 936.T): -81.1628 | AMAX (HuG1-N): -47.6265 | AMAX (HuH-7): -61.9045 | AMAX (IGR-37): -85.5177 | AMAX (IGROV1): -85.9932 | AMAX (IPC-298): -80.8233 | AMAX (Ishikawa): -91.0654 | AMAX (J82): -49.0789 | AMAX (JHH-4): -91.4007 | AMAX (JHOS-2): -63.2509 | AMAX (JHUEM-2): -75.0485 | AMAX (JHUEM-3): -28.2496 | AMAX (JL-1): -61.5427 | AMAX (JVM-2): -91.7997 | AMAX (KARPAS-422): -93.0088 | AMAX (KATO III): -44.0826 | AMAX (KBM-7): -98.5101 | AMAX (KE-97): -95.9856 | AMAX (KMRC-1): -84.1268 | AMAX (KP4): -71.8264 | AMAX (KP-1N): -53.1172 | AMAX (KP-2): -64.2974 | AMAX (KP-3): -63.0208 | AMAX (KU-19-19): -84.2248 | AMAX (KYSE-150): -87.7498 | AMAX (KYSE-180): -85.8737 | AMAX (Kasumi3): -97.5892 | AMAX (L-363): -96.7272 | AMAX (LC2/ad): -74.576 | AMAX (MM138): -73.7519 | AMAX (MM415): -81.4932 | AMAX (MM426): -75.6165 | AMAX (MM485): -69.3744 | AMAX (MM537): -69.6122 | AMAX (MOLT-16): -97.3083 | AMAX (MeWo): -75.2037 | AMAX (NB-1): -99.4488 | AMAX (NCI-H82): -97.4475 | AMAX (NCI-H146): -90.9498 | AMAX (NCI-H322): -80.9979 | AMAX (NCI-H441): -47.4873 | AMAX (NCI-H647): -73.4893 | AMAX (NCI-H841): -87.0207 | AMAX (NCI-H1373): -83.9593 | AMAX (NCI-H1568): -95.718 | AMAX (NCI-H1755): -73.6315 | AMAX (NCI-H2023): -96.0734 | AMAX (NCI-H2087): -83.0999 | AMAX (NCI-H2110): -89.6657 | AMAX (NCI-H2452): -41.6484 | AMAX (NCI-N87): -74.5636 | AMAX (NO36): -67.5733 | AMAX (OUMS-23): -78.9353 | AMAX (OV56): -95.0768 | AMAX (P3HR-1): -93.355 | AMAX (P12-ICHIKAWA): -96.3019 | AMAX (PA-TU-8988T): -81.7224 | AMAX (PANC-1): -64.2148 | AMAX (PC-3): -79.4027 | AMAX (PE/CA-PJ34 (clone C12)): -79.361 | AMAX (PE/CA-PJ49): -67.4836 | AMAX (PF-382): -98.4673 | AMAX (PL-21): -95.522 | AMAX (Panc 03.27): -88.9221 | AMAX (Panc 04.03): -72.0017 | AMAX (Panc 10.05): -85.7173 | AMAX (RD-ES): -97.5942 | AMAX (RT-112): -90.3953 | AMAX (SEM): -97.7133 | AMAX (SK-ES-1): -95.0336 | AMAX (SK-MEL-3): -81.0459 | AMAX (SW480): -74.5488 | AMAX (VMRC-RCW): -71.6057

From PMC5078989, “Targeted inhibition of the COP9 signalosome for treatment of cancer” (Nature Communications, 2016)
